Holding throughout (type): cell-based
One assay deals with Pyricularia oryzae. Briefly: microbe, parasite or virus in culture. The conditions noted are these: 168 h, read-out: % control compared to the untreated check (radial growth).
Another assay has as its system Rhizoctonia solani. Briefly: Rhizoctonia solani (rice sheath blight/potato black scurf) in vitro test, radial growth on Potato Dextrose Agar. The conditions noted are these: 168 h, 300 ppm, seven days, 25° C., read-out: % control compared to the untreated check (radial growth).
The next assay has as its system Botrytis cinerea. As to the kind of experiment: Botrytis cinerea (gray mold) in vitro test, radial growth on Potato Dextrose Agar. The conditions noted are these: 168 h, 300 ppm, seven days, 22° C., read-out: % (control) compared to the untreated check (radial growth).
The test system of the next assay is Alternaria solani. As to the kind of experiment: Alternaria solani (early blight of tomato/potato) in vitro test, radial growth on Potato Dextrose Agar. The conditions noted are these: 168 h, 300 ppm, seven days, 25° C., read-out: % control compared to the untreated check (radial growth).
Another assay concerns Colletotrichum capsici. As to the kind of experiment: Colletotrichum capsici (anthracnose) in vitro test, radial growth on Potato Dextrose Agar. The conditions noted are these: Colletotrichum truncatum, 168 h; 300 ppm; seven days, 25° C.; read-out: % control compared to the untreated check (radial growth).
In another assay the test system is Septoria lycopersici. Briefly: Septoria lycopersici (leaf spot of tomato) in vitro test, radial growth on Potato Dextrose Agar. The conditions noted are these: 168 h, seven days, 25° C., read-out: % control compared to the untreated check (radial growth).
A further assay has as its system Fusarium culmorum. Briefly: Fusarium culmorum (foot rot of cereals) in vitro test, radial growth on Potato Dextrose Agar. The conditions noted are these: Fusarium culmorum, 168 h, read-out: % control compared to the untreated check (radial growth).

For the molecule `CCN(C)C=Nc1cc(C(F)(F)F)c(Cc2cccc(C)c2)cc1C1CC1` [Compound 263, N′-(2-cyclopropyl-4-(3-methylbenzyl)-5-(trifluoromethyl)phenyl)-N-ethyl-N-methylformimidamide], the inhibition of growth at 300 ppm with Pyricularia oryzae was more than 75%; in the assay on Rhizoctonia solani, more than 80%; with Botrytis cinerea it was more than 80%; in the assay on Alternaria solani, more than 75%; with Colletotrichum capsici it was more than 80%; in the assay with Septoria lycopersici, more than 70%. In the assay with Fusarium culmorum, the inhibition of growth at 300 ppm came to 75%.

Take `CCN(C)C=Nc1cc(F)c(Cc2ccccc2C)cc1C` [Compound 186, N-ethyl-N′-(5-fluoro-2-methyl-4-(2-methylbenzyl)phenyl)-N-methylformimidamide]: the inhibition of growth at 300 ppm is more than 75% with Pyricularia oryzae; more than 80% in the assay with Rhizoctonia solani; more than 80% with Botrytis cinerea; more than 75% in the assay on Alternaria solani; more than 80% in the assay with Colletotrichum capsici; more than 70% with Septoria lycopersici. Besides, the inhibition of growth at 300 ppm in the assay on Fusarium culmorum came to 75%.

In the case of `CCN(C)C=Nc1cc(C#N)c(Cc2cccc(F)c2)cc1C` [Compound 250, N′-(5-cyano-4-(3-fluorobenzyl)-2-methylphenyl)-N-ethyl-N-methylformimidamide], the inhibition of growth at 300 ppm in the assay on Pyricularia oryzae was more than 75%; with Rhizoctonia solani, more than 80%; in the assay with Botrytis cinerea it was more than 80%; in the assay with Alternaria solani it was more than 75%; with Septoria lycopersici, more than 70%; in the assay on Fusarium culmorum it was 75%.

With `CCN(C)C=Nc1ccc(Cc2ccccc2C)c2ccccc12` [Compound 271, N-ethyl-N-methyl-N′-(4-(2-methylbenzyl)naphthalen-1-yl)formimidamide], the inhibition of growth at 300 ppm in the assay on Pyricularia oryzae is more than 75%; in the assay on Rhizoctonia solani it was more than 80%; in the assay with Botrytis cinerea it was more than 80%; in the assay on Alternaria solani it was more than 75%; in the assay on Septoria lycopersici it was more than 70%; with Fusarium culmorum it was 75%.

As to `CCN(C)C=Nc1cc(Cl)c(Cc2cccc(C)c2)cc1C` [Compound 260, N′-(5-chloro-2-methyl-4-(3-methylbenzyl)phenyl)-N-ethyl-N-methylformimidamide], the inhibition of growth at 300 ppm in the assay with Pyricularia oryzae is more than 75%; in the assay on Botrytis cinerea, more than 80%; in the assay on Alternaria solani, more than 75%; in the assay with Colletotrichum capsici it was more than 80%; with Septoria lycopersici, more than 70%; in the assay on Fusarium culmorum it was 75%.

Turning to `CCN(C)C=Nc1cc(C)c(Cc2cccc(OC(F)(F)F)c2)cc1C1CC1` [Compound 224, N′-(2-cyclopropyl-5-methyl-4-(3-(trifluoromethoxy)benzyl)phenyl)-N-ethyl-N-methylformimidamide], the inhibition of growth at 300 ppm was more than 75% in the assay with Pyricularia oryzae; more than 80% in the assay on Rhizoctonia solani; more than 80% in the assay on Botrytis cinerea; more than 75% in the assay with Alternaria solani; more than 70% in the assay on Septoria lycopersici; 75% with Fusarium culmorum.

`Cc1cc(N=CN2CCOCC2)c(C)cc1Cc1ccc(F)cc1` [Compound 56, N-(4-(4-fluorobenzyl)-2,5-dimethylphenyl)-1-morpholinomethanimine]: the inhibition of growth at 300 ppm in the assay with Pyricularia oryzae was more than 75%; with Rhizoctonia solani it was more than 80%; with Botrytis cinerea it was more than 80%; in the assay with Alternaria solani it was more than 75%; in the assay with Septoria lycopersici, more than 70%; in the assay on Fusarium culmorum, 75%.

Turning to `CCN(C)C=Nc1cc(C)c(Cc2cccc(C#N)c2)cc1Cl` [Compound 72, N′-(2-chloro-4-(3-cyanobenzyl)-5-methylphenyl)-N-ethyl-N-methylformimidamide], the inhibition of growth at 300 ppm with Pyricularia oryzae is more than 75%; in the assay on Rhizoctonia solani, more than 80%; in the assay on Alternaria solani, more than 75%; in the assay on Colletotrichum capsici, more than 80%; with Septoria lycopersici it was more than 70%; with Fusarium culmorum it was 75%.

Turning to `CCN(C)C=Nc1cc(C)c(/C(=N\C)c2ccccc2C)cc1C` [Compound 215, N′-(2,5-dimethyl-4-((Z)-(methylimino)(o-tolyl)methyl)phenyl)-N-ethyl-N-methylformimidamide], the inhibition of growth at 300 ppm in the assay with Pyricularia oryzae was more than 75%; in the assay on Rhizoctonia solani it was more than 80%; in the assay with Alternaria solani, more than 75%; with Colletotrichum capsici, more than 80%; with Septoria lycopersici it was more than 70%; in the assay on Fusarium culmorum, 75%.

Take `CCN(C)C=Nc1cc(C)c(Cc2ccc(C(F)(F)F)c(F)c2)cc1Cl` [Compound 137, N′-(2-chloro-4-(3-fluoro-4-(trifluoromethyl)benzyl)-5-methylphenyl)-N-ethyl-N-methylformimidamide]: the inhibition of growth at 300 ppm with Pyricularia oryzae is more than 75%; in the assay on Rhizoctonia solani it was more than 80%; in the assay on Botrytis cinerea, more than 80%; with Alternaria solani, more than 75%; in the assay on Colletotrichum capsici, more than 80%; with Fusarium culmorum, 75%.

`CCN(C)C=Nc1cc(C)c(Cc2c(Cl)cccc2Cl)cc1C` [Compound 153, N′-(4-(2,6-dichlorobenzyl)-2,5-dimethylphenyl)-N-ethyl-N-methylformimidamide]: the inhibition of growth at 300 ppm is more than 75% in the assay with Pyricularia oryzae; more than 80% with Rhizoctonia solani; more than 80% with Botrytis cinerea; more than 75% with Alternaria solani; more than 80% in the assay with Colletotrichum capsici; 75% in the assay on Fusarium culmorum.

As for `CCN(C)C=Nc1cc(C)c(Cc2cccc(N(C)C)c2)cc1C` [Compound 111, N′-(4-(3-(dimethylamino)benzyl)-2,5-dimethylphenyl)-N-ethyl-N-methylformimidamide], the inhibition of growth at 300 ppm is more than 75% in the assay with Pyricularia oryzae; more than 80% in the assay with Rhizoctonia solani; more than 75% in the assay on Alternaria solani; more than 80% in the assay on Colletotrichum capsici; more than 70% in the assay on Septoria lycopersici; 75% in the assay with Fusarium culmorum.

As for `CCN(C)C=Nc1cc(C)c(Cc2ccc(Cl)cc2)cc1Cl` [Compound 79, N′-(2-chloro-4-(4-chlorobenzyl)-5-methylphenyl)-N-ethyl-N-methylformimidamide], the inhibition of growth at 300 ppm is more than 75% in the assay with Pyricularia oryzae; more than 80% in the assay with Rhizoctonia solani; more than 80% in the assay on Botrytis cinerea; more than 75% with Alternaria solani; more than 80% in the assay on Colletotrichum capsici; 75% with Fusarium culmorum.

`CCN(C)C=Nc1cc(C)c(Cc2cccc(C(F)(F)F)c2)cc1Cl` [Compound 80, N′-(2-chloro-5-methyl-4-(3-(trifluoromethyl)benzyl)phenyl)-N-ethyl-N-methylformimidamide]: the inhibition of growth at 300 ppm is more than 75% in the assay with Pyricularia oryzae; more than 80% with Rhizoctonia solani; more than 80% with Botrytis cinerea; more than 75% in the assay with Alternaria solani; more than 80% in the assay on Colletotrichum capsici; 75% in the assay on Fusarium culmorum.

In the case of `Cc1cc(N=CN2CCOCC2)c(C)cc1Cc1ccccc1F` [Compound 55, N-(4-(2-fluorobenzyl)-2,5-dimethylphenyl)-1-morpholinomethanimine], the inhibition of growth at 300 ppm in the assay on Pyricularia oryzae was more than 75%; in the assay on Rhizoctonia solani it was more than 80%; in the assay with Botrytis cinerea it was more than 80%; in the assay with Alternaria solani, more than 75%; with Septoria lycopersici, more than 70%; with Fusarium culmorum it was 75%.

As for `CCN(C)C=Nc1cc(C)c(Cc2cccc(Cl)c2)cc1Cl` [Compound 78, N′-(2-chloro-4-(3-chlorobenzyl)-5-methylphenyl)-N-ethyl-N-methylformimidamide], the inhibition of growth at 300 ppm was more than 75% in the assay with Pyricularia oryzae; more than 80% in the assay on Rhizoctonia solani; more than 80% in the assay on Botrytis cinerea; more than 75% with Alternaria solani; more than 80% with Colletotrichum capsici; 75% in the assay with Fusarium culmorum.

As for `CCN(C)C=Nc1cc(C)c(Cc2ccc(F)cc2Cl)cc1Cl` [Compound 99, N′-(2-chloro-4-(2-chloro-4-fluorobenzyl)-5-methylphenyl)-N-ethyl-N-methylformimidamide], the inhibition of growth at 300 ppm with Pyricularia oryzae was more than 75%; with Rhizoctonia solani, more than 80%; in the assay with Botrytis cinerea, more than 80%; in the assay with Alternaria solani, more than 75%; with Colletotrichum capsici, more than 80%; in the assay on Fusarium culmorum it was 75%.

Take `CCN(C)C=Nc1cc(C)c(Cc2cc(C(F)(F)F)ccc2C)cc1C` [Compound 53, N′-(2,5-dimethyl-4-(2-methyl-5-(trifluoromethyl)benzyl)phenyl)-N-ethyl-N-methylformimidamide]: the inhibition of growth at 300 ppm in the assay with Botrytis cinerea was more than 80%; in the assay on Alternaria solani it was more than 75%; in the assay with Colletotrichum capsici, more than 80%; with Septoria lycopersici, more than 70%; with Fusarium culmorum, 75%.

`CCN(C)C=Nc1cc(C#N)c(Cc2ccc(C)cc2)cc1C` [Compound 252, N′-(5-cyano-2-methyl-4-(4-methylbenzyl)phenyl)-N-ethyl-N-methylformimidamide]: the inhibition of growth at 300 ppm was more than 75% in the assay on Pyricularia oryzae; more than 80% in the assay on Rhizoctonia solani; more than 80% in the assay with Botrytis cinerea; more than 75% in the assay on Alternaria solani; more than 70% with Septoria lycopersici; 75% with Fusarium culmorum.

These data come from patent US11155517B2, “4-substituted phenylamine derivatives and their use to protect crops by fighting undesired phytopathogenic micoorganisms” (PI INDUSTRIES LTD., priority 2016, dated 2021).
